How the values were obtained:
[1] = system: prostate cancer in rats TRAMP; conditions: rat, in vivo
From the text: To show the validity of this hypothesis we worked on a preclinical animal model of […]. One of the more important preclinical models for the study of prostate tumor in vivo consists of transgenic rats TRAMP. These animals, when recombinant homozygotes develop prostate cancer with 100% probability in the adult stage. Progress of the illness recapitulates the essential phases of onset and progress of the human ailment. Indeed, it begins with lesions of the Prostate Intraepithelial Neoplasia (PIN) type to then give full blown neoplastic histological lesions, evolve subsequently towards androgen-resistant and aggressive phenotypes, then originating extraprostate and metastatic lesions in the terminal phase. […] Reduction of the onset of this neoplasia in treated animals was 80% (only 20 cases of neoplasia in 100 against 100 out of 100 in untreated animals).

PNT1a = assay: Dose-response growth study in SV40-immortalized human prostate epithelial cells (PNT1a), compared with PC-3; format: cell-based; conditions: PNT1a versus PC-3 cells
[2] = in vivo; cited from earlier work
[3] = system: normal human prostate epithelial cells (EPIT); assay: Dose-response growth study in normal human prostate epithelial cells (EPIT); format: cell-based; conditions: increasing quantities of EGCG, cells in culture

| Molecule | adverse or collateral effect in vitro and in the animal model [1] | IC50 of EGCG in PNT1a relative to PC-3 (PNT1a) | half-life in plasma [2] | growth of EPIT [3] |
| --- | --- | --- | --- | --- |
| catechins | did not witness any adverse or collateral effect | – | – | – |
| O=C(O[C@@H]1Cc2c(O)cc(O)cc2O[C@@H]1c1cc(O)c(O)c(O)c1)c1cc(O)c(O)c(O)c1 [EGCG, (−)-epigallocatechina-3-gallato] | – | very lower than in PC-3 | over 5 hours | not modified significantly |

Reference: patent publication US8044095B2, “Mixture of catechins or rather polyphenols extracted from chinese green tea or other vegetables for the prevention of prostate cancer and for the treatment of prostate hypertrophy (BPH)” (Genprofiler s.r.l., priority 2004, dated 2011)
